Tests used:
[1] = target: T1, glucosylceramide synthase (Homo sapiens, UniProt Q16739); details: Glycoconjugate J., 13, 481-486, 1996; cited from earlier work
T1 sequence (Q16739 1-394): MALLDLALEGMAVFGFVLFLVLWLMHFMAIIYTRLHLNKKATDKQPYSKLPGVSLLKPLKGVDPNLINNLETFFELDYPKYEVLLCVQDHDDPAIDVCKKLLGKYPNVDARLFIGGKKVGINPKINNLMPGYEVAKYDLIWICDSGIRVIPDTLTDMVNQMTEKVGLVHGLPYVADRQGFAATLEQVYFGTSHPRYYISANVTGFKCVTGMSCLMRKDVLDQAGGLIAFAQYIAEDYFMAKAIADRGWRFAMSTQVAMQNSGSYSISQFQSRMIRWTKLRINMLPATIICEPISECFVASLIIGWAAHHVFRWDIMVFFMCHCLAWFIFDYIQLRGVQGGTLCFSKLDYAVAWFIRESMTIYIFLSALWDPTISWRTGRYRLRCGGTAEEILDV

[2] = system: lactosylceramide synthase; details: Glycoconjugate J., 13, 481-486, 1996; cited from earlier work
[3] = system: cells; details: J. Biochem. (Tokyo), 117, 766-773, 1995; cited from earlier work
[4] = system: THP-1 cells; assay: DiI-labeled acetyl LDL (denatured lipoprotein) uptake activity in THP-1 cells, FACS; type: cell-based
Procedure: THP-1 cells (purchased from ATCC) seeded in a 6-well Low Cell Binding Plate (Nunc) at 1.5×10^6/well were treated for 2 days in RPMI-1640 medium (supplemented with 0.4% FBS, 25 mM HEPES and penicillin/streptomycin) containing phorbol-12-myristate-13-acetate (PMA) (final concentration: 100 nM) or in RPMI-1640 medium (supplemented with 0.4% FBS, 25 mM HEPES and penicillin/streptomycin) containing PMA (final concentration: 100 nM) and D-PDMP (final concentration: 20 μM). Next, the treated cells were washed with serum-free RPMI-1640 medium and then suspended in serum-free RPMI-1640 medium supplemented with DiI (1,1′-dioctadecyl-3,3,3′,3′-tetramethylindocarbocyanine)-labeled acetyl LDL (Funakoshi, final concentration: 20 μg/ml), followed by incubation at 37° C. for 90 minutes while shaking. After washing with PBS, the cells were suspended in Cellfix buffer (BD) and uptake of DiI-labeled acetyl LDL was analyzed on a FACScan (BD Bioscience). The intermediate value obtained by the FACS analysis of the cells treated with phorbol-12-myristate-13-acetate alone was made 100%, and relative values were determined under each condition.

[5] = system: phosphorylation of IRS-1; details: J. Biol. Chem., 277, 3085-3092, 2002; cited from earlier work
[6] = target: T1, glucosylceramide synthase; assay: Glucosylceramide synthase enzyme assay ([14C]UDP-glucose, C8 ceramide, lysate of transfected HEK293 cells); type: biochemical; design: made in house; host or cells: HEK293 cells, transiently transfected with pcDNA3.1(-) vector; M-PER lysate, soluble fraction after 27,000 x g; details: calculated using SAS Preclinical Package, ver. 5
Procedure: Human glucosylceramide synthase gene was obtained from IMAGE clone 5274768 (Invitrogen). The reaction solution for the reaction was composed of 2 μl of plasmid DNA of IMAGE clone 5274768, 5 μl of 10×Pfu buffer (Stratagene), 1 μl of Hotstart Pfu (Stratagene), 1 μl each of 20 μM primers and 4 μl of 2.5 mM dNTP, to which 36 μl of distilled water was added to make the volume […]. After 2 minutes at 95° C., PCR was carried out by repeating 30 cycles, one set to include 95° C. for 30 seconds, 60° C. for 30 seconds and 72° C. for 2 minutes, followed by an extension at 72° C. for 10 minutes. […]
HEK293 cells (purchased from ATCC; J. Gen. Virol., 36, 59-74, 1977) were cultured in serum-containing DMEM medium and seeded in a 10 cm collagen coated plate (Iwaki Co.) at 1.2×10^6 on the previous day of gene transfer. […] Then, the chloroform layer was collected and the radioactivity was measured in a liquid scintillation counter. The activity value was determined by the following equation: Glucosylceramide synthase activity (%)=Radioactivity of the enzyme reaction product (cpm)/Specific radioactivity of [^14C]UDP-glucose (cpm/nmol)×1/amount of protein (mg)·reaction time (hr)
D-PDMP known to inhibit the glucosylceramide synthase activity was examined using the procedure described above. The IC50 was calculated using SAS Preclinical Package, ver. […]

[7] = system: THP-1 cells; assay: Cholesterol efflux activity in foamed THP-1 macrophage-like cells ([3H]cholesterol, apolipoprotein AI); type: cell-based; details: for Cholesterol Efflux Activity (%): mean ± standard deviation
Procedure: THP-1 cells (purchased from ATCC; Int. J. Cancer., 26, 171-176, 1980) seeded in a 12-well plate (Falcon) at 8.0×10^5/well were treated for 3 days in RPMI-1640 medium (supplemented with 10% FBS, 25 mM HEPES and penicillin/streptomycin) containing phorbol-12-myristate-13-acetate (PMA) (final concentration: 100 nM) to allow for differentiation into macrophage-like cells. After washing with PBS, serum-free RPMI-1640 containing [^3H] cholesterol-labeled βVLDL (final cholesterol level: 150 μg/ml) was added thereto and incubated for 24 hours to prepare foamed cells. After washing twice with 0.2% BSA-containing PBS and then once with PBS, serum-free RPMI-1640 media supplemented with 0, and 20 µM D-PDMP, respectively, were added to treat for 24 and 48 hours. The supernatant was removed and RPMI-1640 medium (final concentration: 25 μg/ml) containing human apolipoprotein AI (Chemicon) was added thereto. Six hours after, the radioactivity released into the supernatant was measured in a liquid scintillation counter. The cells were further washed once with PBS and then lysed in 0.1% SDS-containing 0.1 N NaOH aqueous solution. A part of the lysate was taken up and the radioactivity was measured in a liquid scintillation counter.
The activity in efflux of cholesterol was determined by the following equation: Cholesterol efflux activity (%)=Radioactivity in supernatant/(Radioactivity in supernatant+Radioactivity in cell lysate)×100
Cells were prepared as described in (1) above. After the foamed cells prepared were washed, serum-free RPMI-1640 media containing 10 μM of glucosylceramide (Matreya, Inc.) and lactosylceramide (CALBIOCHEM), respectively, were added to treat for 24 hours. The supernatant was removed and RPMI-1640 medium (final concentration: 25 μg/ml) containing human apolipoprotein AI (Chemicon) was added thereto. Six hours after, the cholesterol efflux activity was measured by the same method as described in (1) above.

[8] = system: human endothelial cells; details: added to the culture system; J. Biol. Chem., 273, 34349, 1998; cited from earlier work
[9] = system: human smooth muscle cells; details: added to the culture system; Biochem. Biophys. Res. Commun., 181, 554-61, 1991; cited from earlier work
[10] = exogenously added to the culture system, summary of TABLES 2 and 3

IC50 [6] [nM]	Compound	Inhibition of glucosylceramide synthase activity (in words) [1]	Inhibition of lactosylceramide synthase activity (in words) [2]	Depletion of glucosylceramide and lactosylceramide in cells (in words) [3]	Acetyl LDL Uptake Activity (%) ([4]; D-PDMP 20 μM with PMA 100 nM, 2 days, relative to PMA alone = 100%, mean ± standard deviation)	Effect on acetyl LDL uptake activity (in words) ([4]; summary of TABLE 4)	Effect on the action of TNF-α that inhibits phosphorylation of IRS-1 [5]	Cholesterol Efflux Activity (%) ([7]; D-PDMP 10 μM, 24 hrs. treatment, 0 μM control 1.7 ± 0.3)	Cholesterol Efflux Activity (%) ([7]; D-PDMP 10 μM, 48 hrs. treatment, 0 μM control 2.1 ± 0.2)	Cholesterol Efflux Activity (%) ([7]; D-PDMP 20 μM, 24 hrs. treatment, 0 μM control 1.7 ± 0.3)	Cholesterol Efflux Activity (%) ([7]; D-PDMP 20 μM, 48 hrs. treatment, 0 μM control 2.1 ± 0.2)	Effect on cholesterol efflux activity (in words) ([7]; summary of TABLE 1)	Cholesterol Efflux Activity (%) ([7]; Glucosylceramide 10 μM, 24 hours, 0 μM control 3.6 ± 0.1)	Effect on cholesterol efflux activity (in words) [7, 10]	Expression of cell adhesion molecules such as ICAM-1 [8]	Proliferation activity [9]	Cholesterol Efflux Activity (%) ([7]; Lactosylceramide 10 μM, 24 hours, 0 μM control 4.3 ± 0.2)
1500	CCCCCCCCCC(=O)N[C@H](CN1CCOCC1)[C@H](O)c1ccccc1 [D-PDMP, D-threo-1-phenyl-2-decanoylamino-3-morpholino-1-propanol]	known to inhibit the activities	known to inhibit the activities	deplete glucosylceramide and lactosylceramide in cells in a concentration- and treating time-dependent manner	28.9 ± 6.3^ %	suppressed the acetyl LDL uptake activity	suppresses the action of TNF-α that inhibits phosphorylation of IRS-1	4.4 ± 0.4	6.0 ± 0.4	4.3 ± 0.8	6.8 ± 0.5	increased the cholesterol efflux activity concentration- and time-dependently	–	–	–	–	–
–	Glucosylceramide	–	–	–	–	–	–	–	–	–	–	–	3.2 ± 0.2	suppressed	–	–	–
–	Lactosylceramide	–	–	–	–	–	–	–	–	–	–	–	–	suppressed	is increased in human endothelial cells	the proliferation activity is increased	2.3 ± 0.2

— US20070248591A1, “Preventive/Therapeutic Drug for Arteriosclerosis” (TAKEDA PHARMACEUTICAL COMPANY LIMITED, priority 2004, published 2007)
